{
  "source": "paper PMC7316778",
  "about": "(Nature Communications, 2020)",
  "test_in_all_cases": "SelectScreen kinase assay",
  "key": {"EPHA1": {"molecular_target": "EPHA1 (Homo sapiens, UniProt P21709)", "sequence (P21709 26-976)": "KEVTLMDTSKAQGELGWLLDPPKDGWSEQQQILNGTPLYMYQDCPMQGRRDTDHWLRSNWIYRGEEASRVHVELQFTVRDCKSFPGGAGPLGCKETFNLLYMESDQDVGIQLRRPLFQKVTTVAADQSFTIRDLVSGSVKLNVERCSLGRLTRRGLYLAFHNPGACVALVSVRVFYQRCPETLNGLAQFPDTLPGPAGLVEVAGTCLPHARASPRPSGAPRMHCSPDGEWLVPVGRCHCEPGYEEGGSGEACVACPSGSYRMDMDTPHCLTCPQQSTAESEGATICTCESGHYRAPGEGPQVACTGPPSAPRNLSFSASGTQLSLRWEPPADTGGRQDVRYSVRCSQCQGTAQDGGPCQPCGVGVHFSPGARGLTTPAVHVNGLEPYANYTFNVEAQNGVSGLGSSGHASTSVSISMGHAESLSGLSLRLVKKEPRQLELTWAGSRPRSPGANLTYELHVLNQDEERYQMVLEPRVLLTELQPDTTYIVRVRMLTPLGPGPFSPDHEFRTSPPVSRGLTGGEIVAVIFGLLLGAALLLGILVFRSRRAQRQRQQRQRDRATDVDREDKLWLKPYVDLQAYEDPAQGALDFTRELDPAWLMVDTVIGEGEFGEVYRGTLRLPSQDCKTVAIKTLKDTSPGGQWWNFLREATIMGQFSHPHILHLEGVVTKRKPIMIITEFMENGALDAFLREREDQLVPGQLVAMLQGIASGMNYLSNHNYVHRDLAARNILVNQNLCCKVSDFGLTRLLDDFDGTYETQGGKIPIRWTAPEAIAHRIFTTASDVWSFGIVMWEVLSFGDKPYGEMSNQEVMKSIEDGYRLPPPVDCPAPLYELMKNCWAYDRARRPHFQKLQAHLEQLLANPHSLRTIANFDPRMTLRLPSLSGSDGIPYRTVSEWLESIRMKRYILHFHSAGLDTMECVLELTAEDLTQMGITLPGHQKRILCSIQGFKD", "method": "(§1) Selectivity profiling assays were performed by the Invitrogen SelectScreen™ Services. […] The concentration of ATP was selected to be equal to the KM, unless indicated otherwise."}, "EPHA6": {"molecular_target": "EPHA6 (Homo sapiens, UniProt Q9UF33)", "sequence (Q9UF33 23-1036)": "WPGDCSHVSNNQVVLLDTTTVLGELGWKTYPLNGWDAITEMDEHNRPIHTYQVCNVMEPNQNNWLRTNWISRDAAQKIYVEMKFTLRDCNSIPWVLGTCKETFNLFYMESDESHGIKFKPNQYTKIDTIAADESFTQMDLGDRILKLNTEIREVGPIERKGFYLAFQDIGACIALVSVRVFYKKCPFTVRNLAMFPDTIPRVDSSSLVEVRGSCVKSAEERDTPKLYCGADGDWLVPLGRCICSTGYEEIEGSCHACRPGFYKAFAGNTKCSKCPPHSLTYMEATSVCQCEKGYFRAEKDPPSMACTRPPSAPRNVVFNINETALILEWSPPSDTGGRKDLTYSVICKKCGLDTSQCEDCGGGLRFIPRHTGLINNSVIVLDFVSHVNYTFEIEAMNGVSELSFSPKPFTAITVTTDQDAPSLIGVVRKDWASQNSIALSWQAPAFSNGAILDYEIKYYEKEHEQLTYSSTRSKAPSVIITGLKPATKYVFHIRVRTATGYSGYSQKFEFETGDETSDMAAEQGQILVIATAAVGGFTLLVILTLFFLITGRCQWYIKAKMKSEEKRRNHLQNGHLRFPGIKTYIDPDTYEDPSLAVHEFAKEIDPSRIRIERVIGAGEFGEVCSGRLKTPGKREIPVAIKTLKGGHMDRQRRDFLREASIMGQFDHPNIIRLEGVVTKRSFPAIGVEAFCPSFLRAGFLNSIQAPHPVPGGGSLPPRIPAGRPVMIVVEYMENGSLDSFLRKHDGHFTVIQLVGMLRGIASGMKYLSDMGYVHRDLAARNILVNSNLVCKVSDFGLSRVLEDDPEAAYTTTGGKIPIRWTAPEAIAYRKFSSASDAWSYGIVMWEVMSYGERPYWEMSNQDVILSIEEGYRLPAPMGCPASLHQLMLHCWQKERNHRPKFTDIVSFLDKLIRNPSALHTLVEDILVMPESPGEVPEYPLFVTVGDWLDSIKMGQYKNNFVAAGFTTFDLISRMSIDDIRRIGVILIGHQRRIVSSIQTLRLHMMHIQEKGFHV", "method": "as §1"}, "GAK": {"molecular_target": "T1, GAK (Homo sapiens, UniProt O14976)", "T1 sequence (O14976 1-1311)": "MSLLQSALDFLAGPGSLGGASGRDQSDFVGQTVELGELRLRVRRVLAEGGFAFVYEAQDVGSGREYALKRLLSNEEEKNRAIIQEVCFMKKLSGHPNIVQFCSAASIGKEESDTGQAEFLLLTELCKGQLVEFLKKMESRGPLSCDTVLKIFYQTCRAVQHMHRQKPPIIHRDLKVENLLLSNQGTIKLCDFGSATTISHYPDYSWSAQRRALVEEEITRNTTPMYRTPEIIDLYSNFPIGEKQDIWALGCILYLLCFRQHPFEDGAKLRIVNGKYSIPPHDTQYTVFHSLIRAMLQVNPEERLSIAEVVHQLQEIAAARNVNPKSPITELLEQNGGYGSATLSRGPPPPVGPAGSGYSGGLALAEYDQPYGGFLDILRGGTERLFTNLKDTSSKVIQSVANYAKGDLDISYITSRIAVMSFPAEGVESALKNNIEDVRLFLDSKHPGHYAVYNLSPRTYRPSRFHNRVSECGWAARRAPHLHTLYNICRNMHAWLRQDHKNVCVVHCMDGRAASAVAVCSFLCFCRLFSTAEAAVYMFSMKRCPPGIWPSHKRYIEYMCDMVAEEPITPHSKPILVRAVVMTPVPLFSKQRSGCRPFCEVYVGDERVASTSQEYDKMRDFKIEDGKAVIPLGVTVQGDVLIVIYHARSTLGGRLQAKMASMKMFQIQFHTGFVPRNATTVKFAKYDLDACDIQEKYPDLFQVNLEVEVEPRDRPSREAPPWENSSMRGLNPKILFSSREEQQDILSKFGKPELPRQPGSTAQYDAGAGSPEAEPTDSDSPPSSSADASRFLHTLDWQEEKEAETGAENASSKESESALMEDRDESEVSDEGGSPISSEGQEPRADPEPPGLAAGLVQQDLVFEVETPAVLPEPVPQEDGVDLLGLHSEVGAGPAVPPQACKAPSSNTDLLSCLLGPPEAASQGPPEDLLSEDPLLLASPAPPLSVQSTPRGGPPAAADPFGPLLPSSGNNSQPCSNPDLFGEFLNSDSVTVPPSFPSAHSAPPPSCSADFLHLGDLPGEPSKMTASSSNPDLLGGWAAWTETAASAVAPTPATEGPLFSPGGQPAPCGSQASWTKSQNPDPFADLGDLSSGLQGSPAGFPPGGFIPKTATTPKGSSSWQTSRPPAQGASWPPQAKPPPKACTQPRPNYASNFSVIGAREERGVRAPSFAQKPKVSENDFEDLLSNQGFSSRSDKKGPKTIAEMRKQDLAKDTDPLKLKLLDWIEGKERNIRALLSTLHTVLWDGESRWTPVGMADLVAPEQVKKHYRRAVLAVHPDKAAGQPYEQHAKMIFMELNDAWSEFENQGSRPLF", "method": "as §1"}, "ICK": {"molecular_target": "ICK (Homo sapiens, UniProt Q9UPZ9)", "sequence (Q9UPZ9 whole entry)": "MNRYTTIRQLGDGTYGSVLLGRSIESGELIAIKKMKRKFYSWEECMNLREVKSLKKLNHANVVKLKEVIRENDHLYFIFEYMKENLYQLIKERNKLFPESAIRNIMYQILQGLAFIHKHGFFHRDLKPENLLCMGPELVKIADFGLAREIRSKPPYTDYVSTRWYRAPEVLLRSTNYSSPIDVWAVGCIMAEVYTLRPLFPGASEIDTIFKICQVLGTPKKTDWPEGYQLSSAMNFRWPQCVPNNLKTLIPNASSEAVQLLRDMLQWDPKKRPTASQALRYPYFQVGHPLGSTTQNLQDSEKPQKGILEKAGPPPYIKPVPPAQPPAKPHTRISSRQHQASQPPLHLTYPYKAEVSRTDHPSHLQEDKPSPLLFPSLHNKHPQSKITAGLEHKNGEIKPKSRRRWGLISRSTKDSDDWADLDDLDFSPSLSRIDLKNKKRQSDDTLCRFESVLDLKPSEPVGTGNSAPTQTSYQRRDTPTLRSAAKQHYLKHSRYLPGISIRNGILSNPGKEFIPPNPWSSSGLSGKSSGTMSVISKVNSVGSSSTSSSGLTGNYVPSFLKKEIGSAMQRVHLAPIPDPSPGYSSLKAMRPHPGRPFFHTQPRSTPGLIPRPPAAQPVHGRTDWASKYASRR", "method": "as §1"}, "PRKCE (PKC epsilon)": {"molecular_target": "PRKCE (PKC epsilon) (Homo sapiens, UniProt Q02156)", "sequence (Q02156 whole entry)": "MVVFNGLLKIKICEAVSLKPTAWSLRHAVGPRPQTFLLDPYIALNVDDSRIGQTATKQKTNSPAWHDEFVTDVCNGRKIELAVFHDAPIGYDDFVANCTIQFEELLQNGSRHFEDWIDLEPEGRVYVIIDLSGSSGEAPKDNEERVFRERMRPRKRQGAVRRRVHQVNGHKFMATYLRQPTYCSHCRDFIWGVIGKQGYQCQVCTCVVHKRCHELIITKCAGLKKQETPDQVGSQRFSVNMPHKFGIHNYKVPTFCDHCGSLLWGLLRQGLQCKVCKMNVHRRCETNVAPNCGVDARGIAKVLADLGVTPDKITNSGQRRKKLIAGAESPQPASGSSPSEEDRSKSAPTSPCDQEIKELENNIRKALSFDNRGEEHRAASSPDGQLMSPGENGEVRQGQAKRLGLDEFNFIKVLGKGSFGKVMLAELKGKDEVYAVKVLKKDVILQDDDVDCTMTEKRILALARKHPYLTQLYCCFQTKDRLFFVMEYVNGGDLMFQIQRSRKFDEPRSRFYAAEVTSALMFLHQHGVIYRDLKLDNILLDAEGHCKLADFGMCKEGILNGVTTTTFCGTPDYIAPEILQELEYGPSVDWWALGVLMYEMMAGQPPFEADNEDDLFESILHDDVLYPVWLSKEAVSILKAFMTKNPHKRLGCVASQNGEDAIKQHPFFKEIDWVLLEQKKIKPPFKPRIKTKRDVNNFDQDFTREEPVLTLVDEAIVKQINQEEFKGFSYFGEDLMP", "method": "as §1"}, "PRKD2 (PKD2)": {"molecular_target": "T2, PRKD2 (PKD2) (Homo sapiens, UniProt Q9BZL6)", "T2 sequence (Q9BZL6 1-878)": "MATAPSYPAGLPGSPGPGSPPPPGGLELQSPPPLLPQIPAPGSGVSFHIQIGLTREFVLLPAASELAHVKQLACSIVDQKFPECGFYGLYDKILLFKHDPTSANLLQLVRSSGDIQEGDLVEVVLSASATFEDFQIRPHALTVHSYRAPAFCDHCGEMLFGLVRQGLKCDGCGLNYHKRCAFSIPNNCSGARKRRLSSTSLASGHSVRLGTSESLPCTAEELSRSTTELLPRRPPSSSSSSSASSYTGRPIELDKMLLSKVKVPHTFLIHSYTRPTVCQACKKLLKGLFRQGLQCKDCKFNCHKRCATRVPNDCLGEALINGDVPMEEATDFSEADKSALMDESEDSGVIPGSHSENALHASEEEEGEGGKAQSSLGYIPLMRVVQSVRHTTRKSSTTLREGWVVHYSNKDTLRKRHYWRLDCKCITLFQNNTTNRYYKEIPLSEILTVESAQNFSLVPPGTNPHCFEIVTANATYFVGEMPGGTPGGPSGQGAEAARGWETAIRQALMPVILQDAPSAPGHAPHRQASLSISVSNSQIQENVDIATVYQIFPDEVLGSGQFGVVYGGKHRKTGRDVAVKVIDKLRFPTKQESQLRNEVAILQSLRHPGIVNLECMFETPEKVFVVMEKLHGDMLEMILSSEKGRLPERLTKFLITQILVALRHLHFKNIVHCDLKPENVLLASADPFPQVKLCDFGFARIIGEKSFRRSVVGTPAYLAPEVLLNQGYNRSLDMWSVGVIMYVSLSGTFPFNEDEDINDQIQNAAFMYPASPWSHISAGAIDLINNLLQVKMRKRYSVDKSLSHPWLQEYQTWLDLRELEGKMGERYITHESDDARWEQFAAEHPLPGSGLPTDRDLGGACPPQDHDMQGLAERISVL", "conditions": "for Inhibition at 1 µM (%): ZLYTE, ATP Km app", "method": "as §1"}, "[1]": {"conditions": "1 h, 1 μM WEL028, 1 h preincubation"}},
  "note": "Values joined by “and” are separate entries in the source; they are usually repeats but may differ in a detail not shown here. Equal entries are not always repeated. Where two headings read alike, the source gives them in different places.",
  "data": [
    {"smiles": "C#CCOc1ccc(Nc2ncc(Cl)c(Nc3ccccc3NC(=O)C=C)n2)c(OC)c1", "note": "[Compound 6]", "values": [
      {"measurement": "inhibition at 1 µM", "setting": "EPHA1; 1 h", "value": 5, "unit": "%"},
      {"measurement": "inhibition at 1 µM", "setting": "EPHA1; read-out: Inhibition at 1 µM (%)", "value": 5, "unit": "%"},
      {"measurement": "inhibition at 1 µM", "setting": "EPHA6; [1]", "value": 6, "unit": "%"},
      {"measurement": "inhibition at 1 µM", "setting": "EPHA6; read-out: Inhibition at 1 µM (%), EPHA6, 1 µM, LanthaScreen Binding", "value": 5, "unit": "%"},
      {"measurement": "IC50", "setting": "GAK", "value": 12.6, "unit": "nM"},
      {"measurement": "inhibition at 1 µM", "setting": "GAK; [1]", "value": 108, "unit": "%"},
      {"measurement": "Inhibition at 1 µM (%)", "setting": "GAK; GAK, 1 µM, LanthaScreen Binding, listed as WEL028, 1 µM", "value": 109, "unit": "%"},
      {"measurement": "Apparent fold selectivity", "setting": "GAK; IC50 on that kinase divided by IC50 on FES^S700C", "value": 3, "unit": "fold"},
      {"measurement": "inhibition at 1 µM", "setting": "GAK; read-out: Inhibition at 1 µM (%), GAK, 1 µM, LanthaScreen Binding", "value": 108, "unit": "%"},
      {"measurement": "inhibition at 1 µM", "setting": "ICK; [1]", "value": 7, "unit": "%"},
      {"measurement": "inhibition at 1 µM", "setting": "ICK; read-out: Inhibition at 1 µM (%), ICK, 1 µM, LanthaScreen Binding", "value": 8, "unit": "%"},
      {"measurement": "inhibition at 1 µM", "setting": "PRKCE (PKC epsilon); [1]", "value": -13, "unit": "%"},
      {"measurement": "Inhibition at 1 µM (%)", "setting": "PRKCE (PKC epsilon); PRKCE (PKC epsilon), 1 µM, ZLYTE, ATP Km app, listed as WEL028, 1 µM", "value": "-15% and -11%"},
      {"measurement": "Inhibition at 1 µM (%)", "setting": "PRKD2 (PKD2)", "value": 2, "unit": "%"},
      {"measurement": "Inhibition at 1 µM (%)", "setting": "PRKD2 (PKD2); listed as WEL028, 1 µM", "value": 5, "unit": "%"},
      {"measurement": "inhibition at 1 µM", "setting": "PRKD2 (PKD2); [1]", "value": 3, "unit": "%"}
    ]}
  ]
}
